{"source": "paper PMC11079024", "about": "“Identification of a family of species-selective complex I inhibitors as potential anthelmintics” (Nature Communications, 2024)", "biological_target": "C. elegans (N2) complex I (NADH:ubiquinone oxidoreductase) (Caenorhabditis elegans, UniProt P24887+Q93873+Q94360)", "sequence (Q94360 17-199)": "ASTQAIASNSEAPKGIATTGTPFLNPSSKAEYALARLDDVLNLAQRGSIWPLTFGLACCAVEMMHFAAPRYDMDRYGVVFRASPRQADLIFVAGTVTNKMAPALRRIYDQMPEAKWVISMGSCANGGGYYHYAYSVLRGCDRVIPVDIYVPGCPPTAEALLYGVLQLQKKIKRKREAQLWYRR", "sequence (P24887 whole entry)": "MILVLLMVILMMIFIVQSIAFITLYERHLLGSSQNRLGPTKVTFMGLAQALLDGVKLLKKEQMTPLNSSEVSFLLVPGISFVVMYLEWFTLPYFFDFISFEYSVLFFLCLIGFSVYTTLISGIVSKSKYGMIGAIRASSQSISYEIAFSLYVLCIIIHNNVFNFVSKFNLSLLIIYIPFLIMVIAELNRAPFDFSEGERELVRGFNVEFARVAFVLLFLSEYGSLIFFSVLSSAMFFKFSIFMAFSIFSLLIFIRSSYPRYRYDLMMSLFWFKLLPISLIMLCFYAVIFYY", "sequence (Q93873 31-482)": "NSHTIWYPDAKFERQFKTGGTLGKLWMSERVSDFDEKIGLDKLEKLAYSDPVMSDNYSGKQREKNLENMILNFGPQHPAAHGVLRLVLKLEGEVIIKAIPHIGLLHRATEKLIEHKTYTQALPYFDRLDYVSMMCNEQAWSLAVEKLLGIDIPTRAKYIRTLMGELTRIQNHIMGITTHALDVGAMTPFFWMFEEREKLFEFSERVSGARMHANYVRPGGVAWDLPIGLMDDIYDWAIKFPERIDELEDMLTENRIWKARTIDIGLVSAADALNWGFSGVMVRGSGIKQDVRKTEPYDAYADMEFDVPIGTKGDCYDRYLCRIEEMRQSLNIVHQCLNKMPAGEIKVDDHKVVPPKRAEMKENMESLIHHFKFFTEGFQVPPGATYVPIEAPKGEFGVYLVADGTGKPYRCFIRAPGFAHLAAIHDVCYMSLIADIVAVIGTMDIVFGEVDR", "assay": "biochemical", "type": "biochemical", "how_it_was_run": "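Compounds were tested against freeze-thawed isolated mitochondria (0.2 mg/mL protein). NADH:decylubiquinone activity was monitored via DCIP absorbance at 600 nm, and the initial linear slope was normalised to solvent controls.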", "key": {"[1]": {"settings": "wild-type C. elegans, individual Rep1-Rep4, read-out: percent in vitro complex I activity relative to solvent control, single replicates"}, "[2]": {"settings": "wild-type C. elegans, mean of Rep1-4, read-out: percent in vitro complex I activity relative to solvent control, Mean"}, "[3]": {"settings": "N2 wild-type mitochondria, Fig. 4d data set, mean of replicates, read-out: percent (%) in vitro complex I activity relative to solvent control"}, "[4]": {"settings": "wild-type C. elegans mitochondria, mean of replicates, read-out: percent (%) in vitro complex I activity relative to solvent control"}, "[5]": {"settings": "C. elegans mitochondria, Mean of replicates, read-out: in vitro complex I activity relative to solvent control"}, "[6]": {"settings": "C. elegans mitochondria, single replicate, read-out: in vitro complex I activity relative to solvent control"}, "[7]": {"settings": "C. elegans mitochondria, Mean, read-out: in vitro complex I activity relative to solvent control"}}, "note": "“And” between values parts separate entries of the source, which are not always exact repeats. Equal values may be shown once. Read-outs that look alike come from different tables or passages of the source.", "data": [{"smiles": "CC(C)Cc1ccc(C(C)c2nc3ccccc3n2C)cc1", "note": "(centres unmarked) [NPD8790]", "values": [{"measurement": "remaining activity at 0.0001 µM", "setting": "[1]", "value": 100, "unit": "%"}, {"measurement": "remaining activity at 0.0001 µM", "setting": "[2]", "value": 96.6, "unit": "%"}, {"measurement": "remaining activity at 0.0005 µM", "setting": "[1]", "value": 105, "unit": "%"}, {"measurement": "remaining activity at 0.0005 µM", "setting": "[2]", "value": 96.5, "unit": "%"}, {"measurement": "remaining activity at 0.001 µM", "setting": "[1]", "value": 99, "unit": "%"}, {"measurement": "remaining activity at 0.001 µM", "setting": "[2]", "value": 92.6, "unit": "%"}, {"measurement": "remaining activity at 0.0025 µM", "setting": "[1]", "value": 107, "unit": "%"}, {"measurement": "remaining activity at 0.0025 µM", "setting": "[2]", "value": 98.8, "unit": "%"}, {"measurement": "remaining activity at 0.005 µM", "setting": "[1]", "value": 102, "unit": "%"}, {"measurement": "remaining activity at 0.005 µM", "setting": "[2]", "value": 95.9, "unit": "%"}, {"measurement": "remaining activity at 0.013 µM", "setting": "[2]", "value": 106, "unit": "%"}, {"measurement": "remaining activity at 0.025 µM", "setting": "[1]", "value": 102, "unit": "%"}, {"measurement": "remaining activity at 0.025 µM", "setting": "[2]", "value": 98.2, "unit": "%"}, {"measurement": "remaining activity at 0.063 µM", "setting": "[2]", "value": 95.6, "unit": "%"}, {"measurement": "remaining activity at 0.125 µM", "setting": "[3]", "value": 96.6, "unit": "%"}, {"measurement": "remaining activity at 0.125 µM", "setting": "N2 wild-type mitochondria, Fig. 4d data set, single replicate, read-out: percent (%) in vitro complex I activity relative to solvent control", "value": 94.3, "unit": "%"}, {"measurement": "remaining activity at 0.125 µM", "setting": "[4]", "value": 102, "unit": "%"}, {"measurement": "remaining activity at 0.125 µM", "setting": "wild-type C. elegans mitochondria, single replicate, read-out: percent (%) in vitro complex I activity relative to solvent control", "value": 95.7, "unit": "%"}, {"measurement": "remaining activity at 0.125 µM", "setting": "[1]", "value": 95.7, "unit": "%"}, {"measurement": "remaining activity at 0.125 µM", "setting": "[2]", "value": 92, "unit": "%"}, {"measurement": "remaining activity at 0.313 µM", "setting": "[3]", "value": 90.9, "unit": "%"}, {"measurement": "remaining activity at 0.313 µM", "setting": "[4]", "value": 93, "unit": "%"}, {"measurement": "remaining activity at 0.313 µM", "setting": "[1]", "value": 86.3, "unit": "%"}, {"measurement": "remaining activity at 0.313 µM", "setting": "[2]", "value": 81.9, "unit": "%"}, {"measurement": "remaining activity at 0.625 µM", "setting": "[3]", "value": 93.2, "unit": "%"}, {"measurement": "remaining activity at 0.625 µM", "setting": "[4]", "value": 87, "unit": "%"}, {"measurement": "remaining activity at 0.625 µM", "setting": "[2]", "value": 83.7, "unit": "%"}, {"measurement": "remaining activity at 1.5 µM", "setting": "[3]", "value": 78.9, "unit": "%"}, {"measurement": "remaining activity at 1.5 µM", "setting": "[4]", "value": 72.5, "unit": "%"}, {"measurement": "remaining activity at 1.5 µM", "setting": "[2]", "value": 70.3, "unit": "%"}, {"measurement": "remaining activity at 3 µM", "setting": "[3]", "value": 61.6, "unit": "%"}, {"measurement": "remaining activity at 3 µM", "setting": "[4]", "value": 52.5, "unit": "%"}, {"measurement": "remaining activity at 3 µM", "setting": "[2]", "value": 49.5, "unit": "%"}, {"measurement": "remaining activity at 15 µM", "setting": "[3]", "value": 8.9, "unit": "%"}, {"measurement": "remaining activity at 15 µM", "setting": "[4]", "value": 7.83, "unit": "%"}, {"measurement": "remaining activity at 15 µM", "setting": "[2]", "value": 8.01, "unit": "%"}, {"measurement": "remaining activity at 37.5 µM", "setting": "[3]", "value": 5.01, "unit": "%"}, {"measurement": "remaining activity at 37.5 µM", "setting": "[4]", "value": 3.88, "unit": "%"}, {"measurement": "remaining activity at 37.5 µM", "setting": "[2]", "value": 3.5, "unit": "%"}, {"measurement": "remaining activity at 75 µM", "setting": "75 µM, wild-type C. elegans, mean of Rep1-4, read-out: percent in vitro complex I activity relative to solvent control, Mean", "value": 13.3, "unit": "%"}, {"measurement": "activity at 100 µM", "setting": "100 µM compound, relative to solvent control, mean (SEM), read-out: % Activity Complex I", "value": 5.34, "unit": "%"}, {"measurement": "Percent in vitro activity, Complex I (single replicate Rep1-Rep4)", "setting": "100 μM of NPD compound, C. elegans mitochondria, individual biological replicates, 100 µM", "value": "0.000% and 4.423% and 13.672% and 3.252%"}, {"measurement": "activity at 100 µM", "setting": "100 μM of NPD compound, C. elegans mitochondria, mean of four biological replicates, read-out: Percent in vitro activity, Complex I (Mean)", "value": 5.34, "unit": "%"}, {"measurement": "remaining activity at 0.06 µM", "setting": "C. elegans mitochondria, 0.06 µM, Mean of replicates, read-out: in vitro complex I activity relative to solvent control", "value": 109, "unit": "%"}, {"measurement": "remaining activity at 0.13 µM", "setting": "[5]", "value": 102, "unit": "%"}, {"measurement": "remaining activity at 0.13 µM", "setting": "[6]", "value": 112, "unit": "%"}, {"measurement": "remaining activity at 0.313 µM", "setting": "[5]", "value": 93, "unit": "%"}, {"measurement": "remaining activity at 0.625 µM", "setting": "[5]", "value": 87, "unit": "%"}, {"measurement": "remaining activity at 1.5 µM", "setting": "[5]", "value": 72.5, "unit": "%"}, {"measurement": "remaining activity at 3 µM", "setting": "[5]", "value": 52.5, "unit": "%"}, {"measurement": "remaining activity at 15 µM", "setting": "[5]", "value": 7.83, "unit": "%"}, {"measurement": "remaining activity at 37.5 µM", "setting": "[5]", "value": 3.88, "unit": "%"}, {"measurement": "remaining activity at 0.0001 µM", "setting": "[7]", "value": 104, "unit": "%"}, {"measurement": "remaining activity at 0.0005 µM", "setting": "[7]", "value": 106, "unit": "%"}, {"measurement": "remaining activity at 0.0005 µM", "setting": "[6]", "value": 105, "unit": "%"}, {"measurement": "remaining activity at 0.001 µM", "setting": "[7]", "value": 104, "unit": "%"}, {"measurement": "remaining activity at 0.0025 µM", "setting": "[7]", "value": 109, "unit": "%"}, {"measurement": "remaining activity at 0.0025 µM", "setting": "[6]", "value": 107, "unit": "%"}, {"measurement": "remaining activity at 0.005 µM", "setting": "[7]", "value": 107, "unit": "%"}, {"measurement": "remaining activity at 0.013 µM", "setting": "[7]", "value": 115, "unit": "%"}, {"measurement": "remaining activity at 0.025 µM", "setting": "[7]", "value": 108, "unit": "%"}, {"measurement": "remaining activity at 0.025 µM", "setting": "[6]", "value": 102, "unit": "%"}, {"measurement": "remaining activity at 0.063 µM", "setting": "[7]", "value": 109, "unit": "%"}, {"measurement": "remaining activity at 0.125 µM", "setting": "[7]", "value": 102, "unit": "%"}, {"measurement": "remaining activity at 0.125 µM", "setting": "[6]", "value": 95.7, "unit": "%"}, {"measurement": "remaining activity at 0.313 µM", "setting": "[7]", "value": 93, "unit": "%"}, {"measurement": "remaining activity at 0.625 µM", "setting": "[7]", "value": 87, "unit": "%"}, {"measurement": "remaining activity at 1.5 µM", "setting": "[7]", "value": 72.5, "unit": "%"}]}]}
